From patent US10155738B2, “Methods for skin whitening using a gallotannin” (RHODE ISLAND BOARD OF EDUCATION, STATE OF RHODE ISLAND & …, priority 2014, dated 2018)

How the values were obtained:
[1] = test system: B16F10 cells; assay: Melanin content in B16F10 cells; assay type: cell-based, murine; details: for melanin content compared to control group: 72 h
Description: The contents of biosynthesized melanin in melanoma B16F10 cells that treated with ginnalinginnalins A-C at serial concentrations were evaluated by comparing with the control group. The melanin content was determined using a modification of the method described by Liang and Ho. Briefly, B16F10 cells (5×10^4 cells/well) were first seeded in 24-well plates for 24 h and then medium was changed with new DMEM medium containing test samples of various concentrations. After 72 h incubation, the cells were harvested through trypsinization and washed with phosphate-buffered saline (PBS) twice. Then cells were lyzed with 1 N NaOH containing 10% DMSO and heated at 80° C. for 1 h. After samples cooled down to room temperature, the amount of melanin content was spectrophotometrically measured at 400 nm.

[2] = test system: TRP-2; assay: Protein expression by Western blot in B16F10 cells; assay type: cell-based, murine; details: 10 μM, 72 hours
Description: Furthermore, the regulation of ginnalins on the protein expressions of melanogenesis related enzymes in B16F10 cells were evaluated by using Western blot. Expressions of melanin biosynthesis-related proteins, including MITF, TYR, TRP-1 and TRP-2 expression in B16F10 cells were measured by western blot. After incubation with ginnalins for 72 h, proteins from cells were resolved by SDS-PAGE and then transferred to polyvinylidene fluoride membrane. The membrane was blocked with 5% nonfat dry milk in Tris-buffered saline with Tween followed by incubation with primary antibodies overnight. Bands were visualized on X-ray film using an ECL detection kit (Amersham Biosciences, Piscataway, N.J.). A list of antibody, source, and dilution is listed in Supplementary material.

[3] = target: mushroom tyrosinase; assay: Tyrosinase enzyme inhibition assay; assay type: biochemical; details: pure compounds; mean ± S.D., triplicate independent experiments
Description: Maplifa was prepared by new methods developed in the laboratory. Briefly, leaves of red maple were dried and macerated in aqueous ethanol to obtain the crude extract which was then further purified on a resin column to remove chlorophyll and other plant pigments.

[4] = test system: TRP-2; assay: mRNA expression by real-time PCR in B16F10 cells; assay type: cell-based, murine; details: 10 μM, 48 h and 72 h
Description: (§1) Melanin biosynthesis involves multi-step pathways. In order to determine the molecular mechanisms of inhibitory effects of ginnalins on melanin synthesis, expression levels of melanogenesis related genes, including MITF, TYR, TRP-1 and TRP-2, in B16F10 cells were analyzed by using RT-PCR. The B16F10 cells were planted in 6-well plates at a density of 2.0×10^5 cells/well. After being incubated for 24 h, cells were treated with 2 or 10 μM of ginnalins for 48 or 72 h. Total RNA was isolated from cells using TRIzol reagent (Invitrogen) according to the manufacturer's instructions. One microgram of total RNA was converted to single-stranded cDNA using oligo(dT)18 primers, and mRNA levels were quantified by quantitative real-time PCR using a Roche LightCycler detection system (Roche Applied Science, Mannheim, Germany). Samples were run by using SYBR Green and compared with levels of b2m rRNA as a reference housekeeping gene. Quantitative real-time PCR conditions were optimized for each gene using appropriate forward and reverse primers. The primers used are listed in Supplemental material. All oligonucleotides were synthesized by Invitrogen Inc., CA.

[5] = test system: TYR; assay: mRNA expression by real-time PCR in B16F10 cells; assay type: cell-based, murine; details: 10 μM; for TYR mRNA expression: 48 h and 72 h
Description: as §1

[6] = test system: TRP-1; assay: mRNA expression by real-time PCR in B16F10 cells; assay type: cell-based, murine; details: 10 μM, 48 h and 72 h
Description: as §1

[7] = test system: MITF; assay: mRNA expression by real-time PCR in B16F10 cells; assay type: cell-based, murine; details: 10 μM, 48 h and 72 h
Description: as §1

[8] = test system: B16F10 cells; assay: MTS cell viability assay; assay type: cell-based, murine; details: 72 h; for B16F10 cell viability: vs untreated control
Description: To further investigate the anti-melanogenic activities of ginnalinginnalins A-C, present in the Maplifa extract, cellular based assay were employed to measure the melanin content on murine melanoma B16F10 cells. In order to determine the non-toxic concentrations of ginnalinginnalins for cellular assays, cell viability on B16F10 cells were first evaluated by using MTS assay. The MTS assay was carried out as described previously with modifications. At the end of either 24, 48 or 72 h of treatment with test samples (in the concentration range of 1-100 μM for purified gallotannins and 6.25-200 μg/mL for Maplifa extract), 20 μL of the MTS reagent, in combination with the electron coupling agent, phenazine menthosulfate, were added to the wells and cells were incubated at 37° C. in a humidified incubator for 3 h. Absorbance at 490 nm was monitored with a spectrophotometer (SpectraMax M2, Molecular Devices Corp., operated by SoftmaxPro v.4.6 software, CA, USA) to obtain the number of cells relative to control populations. […] Data was presented as mean values±S.D. and were obtained from three separate experiments. Two-tailed unpaired student's t-test was used for statistical analysis of the data using the Office Excel 2010 software. A p value <0.05 was considered significant.
Murine melanoma B16F10 was purchased from the American Type Culture Collection (Rockville, Md.). Cells were cultured in Dulbecco's Modified Eagle Medium (DMEM) medium (Wilkem Scientific, R.I.) that was supplemented with 10% v/v fetal bovine serum, 1% v/v nonessential amino acids and 1% v/v antibiotic solution at 37° C. in 5% CO2. Samples were dissolved at a concentration of 50 mg/mL in dimethylsulfoxide (DMSO) as stock solution and then diluted to the desired final concentrations with growth medium. […]
Melanoma B16F10 cells were treated with serial concentrations of Maplifa (6.25, 12.5, 25, 50, 100, and 200 μg/mL) for 48 and 72 h. In addition, various concentrations (0, 5, 10, 25, and 50 μM) of ginnalinginnalins A-C for 72 h and the cell viabilities were determined by comparing with the untreated control group. […]

Compound	anti-melanogenic effects in B16F10 cells [1]	melanin content compared to control group ([1]; 25 μM) [%]	melanin content compared to control group ([1]; 50 μM) [%]	decrease of TRP-2 protein expression [2] [%]	IC50 [3] [µM]	TRP-2 mRNA expression [4]	TYR mRNA expression [5]	TRP-1 mRNA expression [6]	MITF mRNA expression [7]	effect on melanin content ([1]; 50 μM)	B16F10 cell viability ([8]; 25 μM) [%]	B16F10 cell viability ([8]; 50 μM) [%]	toxicity to B16F10 cells ([8]; low concentrations (5 and 10 μM))	decrease of TYR mRNA expression ([5]; 48 hours) [%]	decrease of TYR mRNA expression ([5]; 72 hours) [%]
O=C(O[C@H]1CO[C@H](CO)[C@@H](O)[C@@H]1O)c1cc(O)c(O)c(O)c1 [Ginnalin C]	only minor anti-melanogenic effects	89.7	68.8	69.5	858	only slightly decreased	only slightly decreased	did not reduce	significantly down-regulated	–	–	–	–	–	–
O=C(OC[C@H]1OC[C@H](OC(=O)c2cc(O)c(O)c(O)c2)[C@@H](O)[C@@H]1O)c1cc(O)c(O)c(O)c1 [Ginnalin A]	–	79.1	56.7	87.9	182	significantly reduced	significantly reduced	significantly reduced	significantly reduced	clearly reduced	87.0	89.5	non-toxic	–	–
OC[C@H]1O[C@@H](Oc2ccc(O)cc2)[C@H](O)[C@@H](O)[C@@H]1O [Arbutin, reference compound]	–	–	–	–	63 ± 0.3	–	–	–	–	–	–	–	–	–	–
O=C(OC[C@H]1OC[C@H](O)[C@@H](O)[C@@H]1O)c1cc(O)c(O)c(O)c1 [Ginnalin B]	only minor anti-melanogenic effects	90.0	90.0	92.0	1050	significantly decreased	–	significantly decreased	significantly decreased	–	–	–	–	10.0	7.5
